Measured values published in US8852876B2, “Label free biosensors and cells” (Corning Incorporated, priority 2008, dated 2014).
One block for each compound: values may come before it.

Legend:
[1] = tested on: CHO cells; test: Biosensor-based cell toxicity (real-time DMR, TM0 resonant peak and band image); set-up: species or system Chinese hamster; conditions: for TM0 mode resonance band image: 25 min
Source text: Profiling compounds by virtue of their cytotoxic and anti-proliferative effects is often used to profile potential anticancer agents. One such phenotype is the compromise in plasma membrane integrity when cells are exposed to cytotoxic agents, including dimethyl sulfoxide (DMSO). Using a waveguide-based biosensor technique, the feasibility for monitoring the effect of DMSO on both Chinese hamster ovary (CHO) and A431 cells was examined. Approximately 10×10^5 cells were placed into each well of a Corning Epic LID microplate. These cells were cultured in serum medium for overnight to ensure that the cells became adherent to the substrate surface and reach at least 80% confluence. The response of cells to DMSO at different concentrations (1%, 2%, 5%, 10%, 15%, 18% and 20%) was examined. Higher concentrations of ˜≧25% of DMSO result in bulk index changes which are beyond the maximum dynamic range of the sensor used and the signal was lost. At least two sets of experiments were carried out for each cell line.
Both A431 and CHO-K1 cells were grown in Dulbecco's modified Eagle's medium (DMEM) supplemented with 10% fetal calf serum, 100 μg/ml penicillin, and 100 μg/ml streptomycin. For cell culture, ˜10×10^5 cells, either A431 or CHO-K1, were suspended in 200 μl medium were placed in each well of a 96 well Corning Epic Biosensor microplate, and were cultured at 37° C. in air/5% CO2 for overnight. Before the assays, the cells were washed once with the corresponding medium. During the assays, the cells in 100 μl medium were subject to two 25 μl HBSS buffer solutions containing 20 mM HEPES, pH 7.4, each separated by at least 15 minutes before 50 μl DMSO solution was applied. During all these steps, a parallel angular interrogation system was used to monitor the real time kinetics of cellular responses.
In one embodiment, the present invention provides a method for high throughput screening compound toxicity on cells using optical biosensors, which comprises of: (a) Provide a microplate that there is an optical-based label free biosensor embedded in the bottom of each well; (b) Place cells into each well to cover the biosensor such that the cells attach and reach high confluency onto the surface of the biosensor; (c) Apply a compound solution into the cell medium of each well; (e) Collect optical waveguide lightmode spectra at certain time. Comparing the PWHM of each compound with a control well wherein the cells are not exposed to any compound solution, the toxicity of compounds can be evaluated using the single data point. If necessary, time-dependent PWHM changes can be also recorded to study the kinetics.
In another embodiment, the present invention provides alternative methods to evaluate compound toxicity, which comprises of: (a) Provide a microplate that there is an optical-based label free biosensor embedded in the bottom of each well; (b) Place cells into each well to cover the biosensor such that the cells attach and reach desired confluency onto the surface of the biosensor; (c) Apply a compound solution into the cell medium of each well; (e) Collect images of TM0 mode resonance angular band of the whole sensor area of each well at certain time. Comparing the widths of the resonant bands of sensors that have been treated with a compound solution with that of a control well wherein the cells are not exposed to any compound solution; the toxicity of compounds can be evaluated.

[2] = tested on: EGF-induced response of quiescent A431 cells; test: Effect of compound pretreatment on EGF-induced DMR response; type: cell-based, human; conditions: for Effect of pretreatment on 32 nM EGF-induced response: quiescent A431 cells
Protocol: Both A431 and CHO-K1 cells were grown in Dulbecco's modified Eagle's medium (DMEM) supplemented with 10% fetal calf serum, 100 μg/ml penicillin, and 100 μg/ml streptomycin. For cell culture, certain numbers of cells (2×10^5 to 1×10^6), either A431 or CHO-K1, were suspended in […] medium were placed in each well of a 96 well Corning Epic Biosensor microplate, and were cultured at 37° C. in air/5% CO2 for certain time until the cell density reached ˜90% and above (unless specified). The resulted cells were termed as “profilerating” cells. The “quiescent” cells were obtained by culturing the profilerating cells of desired confluencies with a medium containing no or little (˜0.1% fetal bovine serum (FBS)) for at least 16 hours.
During the assays, the cells in 100 μl medium were subject to two 25 μl HBSS buffer containing 20 mM HEPES, pH 7.4, each separated by at least 15 minutes before 50 μl stimulus-containing solution was applied. During all these steps, a parallel angular interrogation system was used to monitor the real time kinetics of cellular responses. For compound effect studies, a modified protocol was used which starts with 50 μl medium, and subject to sequential treatment: 25 μl HBSS buffer twice (each separated by at least 15 minutes), 50 μl compound solution and finally 50 μl stimulus-containing solution.

[3] = tested on: protease activated receptors PAR1 and PAR2; type: cell-based, human; conditions: for Effect of pretreatment on trypsin-mediated DMR signal: 100 or 200 nM trypsin, modulators 10 μM
Protocol: (§1) Human epidermoid carcinoma A431 cells (American Type Cell Culture) were grown in Dulbecco's modified Eagle's medium (DMEM) supplemented with 10% fetal bovine serum (FBS), 4.5 g/liter glucose, 2 mM glutamine, and antibiotics. ˜3-7.5×10^4 cells at passage 3 to 5 suspended in 200 μl the DMEM medium containing 10% FBS were placed in each well of a 96 well microplate, and were cultured at 37° C. under air/5% CO2 until ˜95% confluency was reached (˜2-4 days).
(§2) The compound or PAR agonist solutions were made in 1×HBSS in order to match the refractive index between the cell medium and compound solution, thus minimizing the unwanted effect of bulk index change due to the introduction of compound solution which can temporarily overwhelms any DMR signal as it occurs.

[4] = molecular target: T1, protease activated receptors PAR1 and PAR2 (Homo sapiens, UniProt P25116); type: cell-based; conditions: 40 unit/ml thrombin; modulators 10 μM
T1 construct: A431 cells which endogenously express PAR1 and PAR2; endogenous in cells; host or cells: A431
T1 sequence (P25116 22-425): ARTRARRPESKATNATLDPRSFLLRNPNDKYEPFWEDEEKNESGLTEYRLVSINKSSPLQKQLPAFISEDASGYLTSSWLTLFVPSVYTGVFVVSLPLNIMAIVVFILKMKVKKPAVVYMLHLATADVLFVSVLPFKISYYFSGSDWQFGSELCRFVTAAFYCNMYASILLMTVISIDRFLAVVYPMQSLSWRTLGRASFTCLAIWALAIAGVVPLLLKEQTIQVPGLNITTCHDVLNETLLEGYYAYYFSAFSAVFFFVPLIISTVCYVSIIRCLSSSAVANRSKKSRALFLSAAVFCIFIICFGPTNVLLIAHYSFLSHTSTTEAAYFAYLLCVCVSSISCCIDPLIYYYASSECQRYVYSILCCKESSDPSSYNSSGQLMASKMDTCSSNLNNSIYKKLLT
Protocol: as §1, §2

[5] = tested on: quiescent A431 cells; test: H2O2-induced DMR (reactive oxygen species signaling, redox state); type: cell-based, human; conditions: for DMR signal: 4 mM H2O2; for Effect on cell responses mediated with 1 mM H2O2: src kinase modulators
Source text: In this study, all optical responses were monitored with a wavelength interrogation system. The RWG biosensor is comprised of three major components for bioassay applications: an Epic™ sensor microplate, an RWG detector, and a liquid handling system. The sensor microplate consists of a glass bottom plate attached to a plastic holy plate of a given SBS format (e.g., 96-well or 384-well), which enables high throughput screening. In a 96 well Epic™ sensor microplate, each well contains one RWG sensor of approximately 3×3 mm^2. The RWG sensor consists of a thin film of dielectric material on the grating presenting glass substrate.
The wavelength interrogation detector system is centered on integrated fiber optics. A broadband light source, generated through a fiber optic and a collimating lens at nominally normal incidence through the bottom of the microplate, is used to illuminate a small region of the grating surface. A detection fiber for recording the reflected light is bundled with the illumination fiber. A series of 8 illumination/detection heads are arranged in a linear fashion, so that reflection spectra are collected from all 8 wells within the same column of a microplate at once. With the spatial-controlled movement, the whole plate is moving across the illumination/detection heads so that each sensor can be addressed multiple times, and each column be addressed in sequence. A series of spectra of the reflected lights are collected and used for analysis. Since this detection system measures the wavelength shift of the reflected lights induced by the cell response in response to stimulation, this approach is referred to the wavelength interrogation system.

[6] = tested on: protease activated receptors PAR1 and PAR2; test: Fluo-3 Ca2+ mobilization assay with PAR agonists; type: cell-based, human
Protocol: A431 at passage 3 to 5 were grown in Costar™ 96 well clear cell culture microplates until ˜95% confluency, washed twice and starved overnight with the DMEM only, washed with 1×HBSS (1× regular Hank's balanced salt solution, 20 mM HEPES buffer, pH 7.0) in the presence of 2.5 mM probenicid, and labeled in the same buffer containing 4 μM Fluo-3 for 1 hour at room temperature. The cells were then washed twice with buffer, maintained with 100 μl 1×HBSS containing 2.5 mM probenicid. The assay was initiated by transferring 50 μl PAR agonist solution to the cell plate, and calcium signal was recorded over 6 minutes with a 6 sec interval using HTS7000 BioAssay Reader (PerkinElmer Life Science, Boston, Mass.). The assays were carried out at room temperature in order to allow direct comparison with optical sensing data.

[7] = tested on: endogenous GPCRs in A431 cells; test: DMR optical biosensor profiling of GPCR agonists; type: cell-based, human; conditions: quiescent A431; first class = Gq-type, second = Gs-type, third = Gi-type, fourth = no significant DMR

Compound: C[S+](C)[O-] [DMSO, dimethyl sulfoxide]
- TM0 mode resonance band image ([1]; 18% DMSO, confluency above 70%): DMSO-induced resonance band broadening
- PWHM of TM0 resonant peak over time ([1]; 18% DMSO, cell density below ~25%): no change in the PWHM value over time
- PWHM of TM0 resonant peak over time ([1]; 18% DMSO, confluency >70%): an initial increase in PWHM followed by decreasing PWHM value
- DMSO-induced time-dependent response of cell layer, event D ([1]; DMSO 20%): a prolonged and decreased signal due to the loss of proteins or other biological molecules of cells caused by the toxicity of high concentrations of DMSO
- DMSO-induced time-dependent response of cell layer ([1]; DMSO concentration <20%): the response is almost featureless
- TM0 mode resonance band image ([1]; ~15% DMSO, ~95% confluency): a second resonance band appearing
- TM0 mode resonance band image, dependence on DMSO concentration ([1]; ~95% confluency, 25 min treatment): only higher concentrations cause significant cell toxicity
- Effect of pretreatment on 32 nM EGF-induced response [2]: a little effect on the EGF-induced response

Compound: CN(C)CCCn1cc(C2=C(c3c[nH]c4ccccc34)C(=O)NC2=O)c2ccccc21 [GF 109203x]
- Effect of pretreatment on trypsin-mediated DMR signal [3]: no obvious effect on both thrombin- and trypsin-mediated DMR signal
- Effect of pretreatment on thrombin-mediated DMR signal [4]: no obvious effect on both thrombin- and trypsin-mediated DMR signal
- Effect of pretreatment on 32 nM EGF-induced response [2]: partial attenuation on the response

Compound: OO [H2O2, hydrogen peroxide]
- DMR signal (shift in incident angle) ([5]; 1 mM H2O2): triggered significant mass redistribution within the sensing volume of the sensors
- PWHM of resonant peak of TM0 mode ([5]; 1 mM H2O2): slightly increased the PWHM of the resonant peak of TM0 mode
- DMR signal ([5]; high redox state cells): a characteristic of cells undergoing apoptosis
- DMR signal ([5]; low redox state cells): a typical DMR signal for the low redox state of cells
- DMR signal and Live/Dead cell staining ([5]; H2O2 at or above 16 mM): the cells treated with high doses of H2O2 undergo apoptosis
- DMR signal (wavelength shift) ([5]; H2O2 at or below about 8 mM): a typical curve that consists of two major events: an initial peak and a prolonged increased mass signal

Compound: Cc1ccc(-c2nn(C(C)(C)C)c3ncnc(N)c23)cc1 [PP1]
- Effect on cell responses mediated with 1 mM H2O2 [5]: significantly suppressed the H2O2-mediated cell responses
- Effect of pre-treatment on EGF-induced P-DMR and N-DMR signals ([2]; starved A431 cells, 8 nM EGF, 30-minute pretreatment, GH 0.5 ng/ml, PD98059 0.1 mM, PP1 1 μM, wortmannin 0.1 μM, DIP 50 μM): significantly reduced both the binding and DMR signals

Compound: CC(C)(C)n1nc(-c2ccc(Cl)cc2)c2c(N)ncnc21 [PP2]
- Effect on cell responses mediated with 1 mM H2O2 [5]: significantly suppressed the H2O2-mediated cell responses

Compound: Nc1ncnc2c1cnn2-c1ccccc1 [PP3]
- Effect on cell responses mediated with 1 mM H2O2 [5]: did not affect the responses

Compound: C/C1=C/C(=O)O[C@@H]2C[C@@H](CC[C@H](C)/C=C\C=C\CC1)O[C@@](O)([C@@H]1CSC(=O)N1)C2 [latrunculin A]
- Effect of pretreatment on trypsin-mediated DMR signal [3]: completely blocked either thrombin- or trypsin-mediated DMR signal
- Effect of pretreatment on thrombin-mediated DMR signal [4]: completely blocked either thrombin- or trypsin-mediated DMR signal
- Effect of pretreatment on 32 nM EGF-induced response [2]: totally abolished the N-DMR signal

Compound: COC(=O)Nc1nc2ccc(C(=O)c3cccs3)cc2[nH]1 [nocodazole]
- Effect of pretreatment on trypsin-mediated DMR signal [3]: neither a stabilizing polymeric F-actin agent phalloidin nor a microtubule disrupter nocodazole had significant effect
- Effect of pretreatment on thrombin-mediated DMR signal [4]: neither a stabilizing polymeric F-actin agent phalloidin nor a microtubule disrupter nocodazole had significant effect
- Effect of pretreatment on 32 nM EGF-induced response [2]: hardly any effect on the EGF-induced response

- Maximal [Ca2+]i elevation ([6]; quiescent A431, Fluo-3): 74.3±3.9%
- [Ca2+]i elevation after preceding stimulation with thrombin ([6]; thrombin 40 unit/ml first, interval 6 min): 32±4.3%
Compound: SFFLR-amide [PAR1-AP]
- Effect of preceding stimulation on trypsin-induced DMR signal ([3]; interval about 1 hour): significantly suppresses but not completely eliminates the trypsin-induced DMR signal
- Effect of preceding stimulation on trypsin-induced [Ca2+]i elevation ([6]; interval 6 min, 200 nM trypsin): significantly attenuated but not completely eliminates the trypsin-induced [Ca^2+]i elevation
- Class of optical signature (DMR) induced by agonist [7]: first class of optical signatures
